From US20060122267A1, “Compositions and methods for attenuating mitochondria-mediated cell injury” (priority 2003, published 2006)

Columns and labels:
mitochondrial proteins = test: Biotin-switch analysis of mitochondrial protein S-nitrosation; assay type: biochemical, rat
Protocol: (§1) Rat heart mitochondria were isolated using differential centrifugation (Tompkins, et al. (2005) Biochim. Biophys. Acta PMID: 16278076). Protein was determined by the Folin-phenol method (Lowry, et al. (1951) J. Bio. Chem. 193:265-75) against a standard curve constructed using bovine serum albumin. Mitochondrial incubations and all subsequent steps were performed in the dark. One mg of mitochondrial protein was suspended in 1 mL of mitochondrial respiration buffer (Tompkins, et al. (2005) supra) containing respiratory substrates glutamate (5 mM), malate (2.5 mM) and succinate (5 mM). […] Samples were centrifuged (5 minutes, 14,000×g), and supernatants removed. The pellets were then resuspended in 1 mL of respiration buffer, and centrifuged again. Pellets were frozen in liquid N2 for subsequent analysis. For ONOO^− treatments, 4 μL of 25 mM ONOO^− stock (100 μM final concentration) was added the cap of the reaction tube, the cap quickly closed and the tube shaken immediately. The process was then repeated twice at 30 second intervals, for a total of 3 additions. Mitochondria were then pelleted, washed, and frozen as for S-nitrosoglutathione samples. Complex I activity was assayed as the rotenone-sensitive oxidation of NADH, at 340 nm in the presence of coenzyme Q1 (Borutaite, et al. (2000) supra). Complex IV was assayed by monitoring the cyanide-sensitive first-order oxidation of reduced cytochrome c, at 550 nm according to established methods (Cleeter, et al. (1994) supra).
For biotin-switch analysis, intact mitochondrial pellets (1 mg protein solubilized in extraction buffer) or chromatography column fractions were analyzed in accordance with known methods (Jaffrey & Snyder (2001) supra). Samples were separated in duplicate on non-reducing SDS-PAGE gels; half the gel was stained with COOMASSIE® blue, and the other half blotted and probed with streptavidin-HRP and ECL™ detection (GE biosciences). Blots and stained gels were aligned, and S-nitrosated proteins excised, trypsinized, and identified by peptide mass fingerprinting. Mass spectra (MALDI-TOF) were analyzed using the MASCOT™ algorithm available on the world-wide web at matrixscience.com.

rat heart mitochondria = test: Chemiluminescent NO analysis of total S-nitrosothiol in treated mitochondria; assay type: biochemical
Protocol: At concentrations above 250 μM, secondary reactions such as free S-nitrosothiol or NO2^− formation were observed.
as §1
Chemiluminescent analysis of S-nitrosothiol content was performed on samples originating from blue-native gels, intact mitochondria and SUPEROSE™ 6 chromatography fractions, according to known methodologies (Yang, et al. (2003) Free Radic. Res. 37:1-10). […] Each sample was run in duplicate and quantified using a standard curve created with known concentrations of NaNO2.

[1] = target: T1, 75 kDa subunit of complex I (Rattus norvegicus, UniProt Q66HF1); test: SUPEROSE 6 chromatography S-nitrosothiol profile with biotin switch identification of S-nitrosated peptide; assay type: biochemical; settings: S-nitrosoglutathione-treated mitochondria
T1 construct: Mitochondrial protein (3 mg) was extracted in 300 μL of column running buffer; from tissue; host or cells: rat heart mitochondria, SUPEROSE 6 column fraction enriched in complex I
Text: To simplify separation of complex I, SUPEROSE™ 6 gel filtration chromatography was employed as a liquid phase high-throughput separation method (Danial, et al. (2003) Nature 424:952-6). Chemiluminescent analysis of column fractions was then used to construct an S-nitrosothiol profile. Most S-nitrosothiol concentrated in two regions of the chromatogram, eluting at ˜35% and 85% of the column bed volume.
The fraction with most S-nitrosothiol content was enriched in complex I activity, and was then further analyzed by biotin switch assay to identify S-nitrosated peptides (i.e., which of the 46 subunits in complex I was S-nitrosated). […]
A 25 cm×1 cm BIO-RAD® glass ECONO-COLUMN™ was used, with appropriate flow adaptor (BIO-RAD®, Hercules Calif.) and a MASTERFLEX™ peristaltic pump (Cole Parmer, Vernon Hills, Ill.). […] Fractions (200 μL) were collected, and their A280 measured to determine relative protein content. In addition, the S-nitrosothiol content and complex I activity of each fraction were analyzed as disclosed herein. […] Therefore, for data comparison the relative position of eluted column fractions was expressed as a percentage of the total column bed volume. […]
For biotin-switch analysis, intact mitochondrial pellets (1 mg protein solubilized in extraction buffer) or chromatography column fractions were analyzed in accordance with known methods (Jaffrey & Snyder (2001) supra). […]

mitochondrial complex I = target: T2, mitochondrial complex I (Rattus norvegicus, UniProt Q66HF1); test: Complex I activity (rotenone-sensitive NADH/Co-Q1 oxidation/reduction) in NO donor-treated mitochondria; assay type: biochemical
T2 construct: Rat heart mitochondria were isolated using differential centrifugation; from tissue; host or cells: rat heart mitochondria (male Sprague-Dawley rats)
Protocol: as §1, with “Complex IV was assayed by monitoring the cyanide-sensitive first-order oxidation of reduced cytochrome c, at 550 nm according to established methods (Cleeter, et al. (1994) supra).” left out

T2 sequence (Q66HF1 24-727, one chain of several): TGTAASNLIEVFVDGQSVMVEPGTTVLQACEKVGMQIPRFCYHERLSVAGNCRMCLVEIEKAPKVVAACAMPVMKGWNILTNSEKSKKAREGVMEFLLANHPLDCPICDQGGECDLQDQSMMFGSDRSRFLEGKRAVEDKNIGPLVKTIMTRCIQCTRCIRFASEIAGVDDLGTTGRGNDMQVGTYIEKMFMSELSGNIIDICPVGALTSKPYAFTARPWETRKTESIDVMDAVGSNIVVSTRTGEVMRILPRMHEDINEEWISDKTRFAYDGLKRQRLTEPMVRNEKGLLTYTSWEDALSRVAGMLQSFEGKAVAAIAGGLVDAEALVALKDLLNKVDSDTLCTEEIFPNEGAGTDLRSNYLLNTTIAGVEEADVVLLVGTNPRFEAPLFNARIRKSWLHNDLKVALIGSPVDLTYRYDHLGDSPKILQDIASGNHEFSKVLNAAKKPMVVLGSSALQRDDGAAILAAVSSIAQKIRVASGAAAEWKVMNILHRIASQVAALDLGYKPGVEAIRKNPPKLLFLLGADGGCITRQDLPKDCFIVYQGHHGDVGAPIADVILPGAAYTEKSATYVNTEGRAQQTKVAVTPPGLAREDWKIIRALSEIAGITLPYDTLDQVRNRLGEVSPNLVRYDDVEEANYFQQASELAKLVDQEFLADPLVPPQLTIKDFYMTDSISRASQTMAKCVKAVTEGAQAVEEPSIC
T1 sequence (Q66HF1 24-727, one chain of several): as above

N[C@@H](CCC(=O)N[C@@H](CSN=O)C(=O)NCC(=O)O)C(=O)O [S-nitrosoglutathione]
S-nitrosation of entire mitochondrial protein extract, comparison of NO donors (mitochondrial proteins; S-nitrosoglutathione 1 mM, DETA-NONOate 2 mM, ONOO- 3 additions of 100 μM, 37° C., 40 minutes): far more S-nitrosation than DETA-NONOate or ONOO^− | concentration at which formation of protein bound S-nitrosothiol saturates (mitochondrial proteins; biotin-switch and chemiluminescent data together): ~250 µM | concentration at which plateau of mitochondrial protein S-nitrosation is reached (mitochondrial proteins; dose response over 50-250 μM): ~200 µM | concentration above which secondary reactions (free S-nitrosothiol or NO2- formation) were observed (rat heart mitochondria): above 250 μM | total S-nitrosothiol (rat heart mitochondria; 100 μM treatment): ~1700 pmol/mg mitochondrial protein | concentration approaching saturation of total S-nitrosothiol (free plus protein-bound) (rat heart mitochondria; range 10 μM to 1 mM): ~300 µM | share of total protein-bound S-nitrosothiol contained in the 75 kDa subunit of complex I [1]: ~20% | complex I inhibition (mitochondrial complex I; S-nitrosoglutathione treatment of mitochondria, exposure to light): complex I inhibition that was reversible by exposure of mitochondria to light | maximum complex I inhibition (mitochondrial complex I; dose response 10-500 μM): 20-25%
